Experimental data reported in patent publication US6525001B1, “Substituted pyrimidine and pyridine herbicides” (Mid-American Commercialization Corporation, priority 1997, dated 2003).

Columns and labels:
Format in all cases: in vivo
Set-up in all cases: key: 0 is no effect; 10 is complete control
[1] = tested on: velvetleaf (Abutilon theophrasti); assay: Test B pre-/postemergence
Text: (§1) Seeds of bedstraw (Galium aparine), blackgrass (Alopecurus myosuroides), broadleaf signalgrass (Brachiaria decumbens), cocklebur (Xanthium strumarium), corn (Zea mays), crabgrass (Digitaria sanguinalis), giant foxtail (Setaria faberii), lambsquarters (Chenopodium album), momingglory (Ipomoea hederacea), pigweed (Amaranthus retroflexus), rape (Brassica napus), soybean (Glycine max), sugar beet (Beta vulgaris), velvetleaf (Abutilon theophrasti), wheat (Triticum aestivum), wild oat (Avena fatua) and purple nutsedge (Cyperus rotundus) tubers were planted and treated preemergence with test chemicals formulated in a non-phytotoxic solvent mixture which included a surfactant.
(§2) At the same time, these crop and weed species were also treated with postemergence applications of test chemicals formulated in the same manner. Plants ranged in height from 2 to 18 cm (1- to 4-leaf stage) for postemergence treatments. Plant species in the flood test consisted of rice (Oryza sativa), smallflower flatsedge (Cyperus difformis), duck salad (Heteranthera limosa) and bamyardgrass (Echinochloa crus-galli) grown to the 2-leaf stage for testing. Treated plants and controls were maintained in a greenhouse for twelve to sixteen days, after which all species were compared to controls and visually evaluated. Plant response ratings, summarized in Table B, are based on a scale of 0 to 10 where 0 is no effect and 10 is complete control. A dash (−) response means no test result.

[2] = tested on: broadleaf signalgrass (Brachiaria decumbens); assay: Test B pre-/postemergence
Text: as §1, §2

soybean (Glycine max) = assay: Test B pre-/postemergence
Text: as §1, §2

[3] = tested on: sugar beet (Beta vulgaris); assay: Test B pre-/postemergence
Text: as §1, §2

[4] = tested on: blackgrass (Alopecurus myosuroides); assay: Test B pre-/postemergence
Text: as §1, §2

[5] = tested on: pigweed (Amaranthus retroflexus); assay: Test B pre-/postemergence
Text: as §1, §2

[6] = tested on: wheat (Triticum aestivum); assay: Test B pre-/postemergence
Text: as §1, §2

[7] = tested on: cocklebur (Xanthium strumarium); assay: Test B pre-/postemergence; settings: for Plant response rating, Cocklebur: Postemergence; for Cocklebur plant response rating: Preemergence
Text: as §1, §2

[8] = tested on: giant foxtail (Setaria faberii); assay: Test B pre-/postemergence
Text: as §1, §2

[9] = tested on: purple nutsedge (Cyperus rotundus); assay: Test B pre-/postemergence
Text: as §1, §2

[10] = tested on: momingglory (Ipomoea hederacea); assay: Test B pre-/postemergence
Text: as §1, §2

rape (Brassica napus) = assay: Test B pre-/postemergence
Text: as §1, §2

wild oat (Avena fatua) = assay: Test B pre-/postemergence
Text: as §1, §2

[11] = tested on: crabgrass (Digitaria sanguinalis); assay: Test B pre-/postemergence
Text: as §1, §2

[12] = tested on: bedstraw (Galium aparine); assay: Test B pre-/postemergence
Text: as §1, §2

corn (Zea mays) = assay: Test B pre-/postemergence
Text: as §1, §2

[13] = tested on: duck salad (Heteranthera limosa); assay: Test B flood test
Outline: (§3)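 Each value is a visual injury score relative to controls, with 10 meaning complete control and 0 no effect. Evaluation took place twelve to sixteen days after the 2-leaf-stage plants were treated and kept in the greenhouse.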

rice (Oryza sativa) = assay: Test B flood test
Outline: as §3

[14] = tested on: bamyardgrass (Echinochloa crus-galli); assay: Test B flood test
Outline: as §3

[15] = tested on: smallflower flatsedge (Cyperus difformis); assay: Test B flood test
Outline: as §3

[16] = Rate 62 g/ha, Postemergence (flood test)
[17] = Rate 125 g/ha, Postemergence, flood test
[18] = Rate 250 g/ha, Postemergence (flood test species)

Structure (SMILES): COC(c1cccc(C(F)(F)F)c1)c1nc(-c2ccc(C(F)(F)F)cc2)ncc1C (racemic) [Compound 20]
- Plant response rating, Velvetleaf ([1]; Rate 62 g/ha, Postemergence): 4
- Velvetleaf plant response rating ([1]; Rate 62 g/ha, Preemergence): 0
- Plant response rating, Velvetleaf ([1]; Rate 125 g/ha, Postemergence): 6
- Velvetleaf plant response rating ([1]; Rate 125 g/ha, Preemergence): 0
- Plant response rating, Velvetleaf ([1]; Rate 250 g/ha, Postemergence): 7
- Plant response rating, Velvetleaf ([1]; Rate 250 g/ha, Preemergence): 0
- Plant response rating, B. signalgrass ([2]; Rate 62 g/ha, Postemergence): 2
- B. signalgrass plant response rating ([2]; Rate 62 g/ha, Preemergence): 0
- Plant response rating, B. signalgrass ([2]; Rate 125 g/ha, Postemergence): 2
- B. signalgrass plant response rating ([2]; Rate 125 g/ha, Preemergence): 1
- Plant response rating, B. signalgrass ([2]; Rate 250 g/ha, Postemergence): 3
- Plant response rating, B. signalgrass ([2]; Rate 250 g/ha, Preemergence): 4
- Plant response rating, Soybean (soybean (Glycine max); Rate 62 g/ha, Postemergence): 4
- Soybean plant response rating (soybean (Glycine max); Rate 62 g/ha, Preemergence): 0
- Plant response rating, Soybean (soybean (Glycine max); Rate 125 g/ha, Postemergence): 5
- Soybean plant response rating (soybean (Glycine max); Rate 125 g/ha, Preemergence): 0
- Plant response rating, Soybean (soybean (Glycine max); Rate 250 g/ha, Postemergence): 6
- Plant response rating, Soybean (soybean (Glycine max); Rate 250 g/ha, Preemergence): 0
- Plant response rating, Sugarbeets ([3]; Rate 62 g/ha, Postemergence): 3
- Sugarbeets plant response rating ([3]; Rate 62 g/ha, Preemergence): 0
- Plant response rating, Sugarbeets ([3]; Rate 125 g/ha, Postemergence): 5
- Sugarbeets plant response rating ([3]; Rate 125 g/ha, Preemergence): 0
- Plant response rating, Sugarbeets ([3]; Rate 250 g/ha, Postemergence): 7
- Plant response rating, Sugarbeets ([3]; Rate 250 g/ha, Preemergence): 2
- Plant response rating, Blackgrass ([4]; Rate 62 g/ha, Postemergence): 2
- Blackgrass plant response rating ([4]; Rate 62 g/ha, Preemergence): 1
- Plant response rating, Blackgrass ([4]; Rate 125 g/ha, Postemergence): 2
- Blackgrass plant response rating ([4]; Rate 125 g/ha, Preemergence): 2
- Plant response rating, Blackgrass ([4]; Rate 250 g/ha, Postemergence): 3
- Plant response rating, Blackgrass ([4]; Rate 250 g/ha, Preemergence): 4
- Plant response rating, Redroot pigweed ([5]; Rate 62 g/ha, Postemergence): 5
- Redroot pigweed plant response rating ([5]; Rate 62 g/ha, Preemergence): 0
- Plant response rating, Redroot pigweed ([5]; Rate 125 g/ha, Postemergence): 7
- Redroot pigweed plant response rating ([5]; Rate 125 g/ha, Preemergence): 0
- Plant response rating, Redroot pigweed ([5]; Rate 250 g/ha, Postemergence): 8
- Plant response rating, Redroot pigweed ([5]; Rate 250 g/ha, Preemergence): 1
- Plant response rating, Wheat ([6]; Rate 62 g/ha, Postemergence): 2
- Wheat plant response rating ([6]; Rate 62 g/ha, Preemergence): 0
- Plant response rating, Wheat ([6]; Rate 125 g/ha, Postemergence): 3
- Wheat plant response rating ([6]; Rate 125 g/ha, Preemergence): 0
- Plant response rating, Wheat ([6]; Rate 250 g/ha, Postemergence): 3
- Plant response rating, Wheat ([6]; Rate 250 g/ha, Preemergence): 0
- Plant response rating, Cocklebur ([7]; Rate 62 g/ha): 4
- Cocklebur plant response rating ([7]; Rate 62 g/ha): 0
- Plant response rating, Cocklebur ([7]; Rate 125 g/ha): 5
- Cocklebur plant response rating ([7]; Rate 125 g/ha): 0
- Plant response rating, Cocklebur ([7]; Rate 250 g/ha): 7
- Plant response rating, Giant foxtail ([8]; Rate 62 g/ha, Postemergence): 2
- Giant foxtail plant response rating ([8]; Rate 62 g/ha, Preemergence): 0
- Plant response rating, Giant foxtail ([8]; Rate 125 g/ha, Postemergence): 2
- Giant foxtail plant response rating ([8]; Rate 125 g/ha, Preemergence): 0
- Plant response rating, Giant foxtail ([8]; Rate 250 g/ha, Postemergence): 3
- Plant response rating, Giant foxtail ([8]; Rate 250 g/ha, Preemergence): 1
- Plant response rating, Nutsedge ([9]; Rate 62 g/ha, Postemergence): 0
- Nutsedge plant response rating ([9]; Rate 62 g/ha, Preemergence): 0
- Plant response rating, Nutsedge ([9]; Rate 125 g/ha, Postemergence): 0
- Plant response rating, Nutsedge ([9]; Rate 250 g/ha, Postemergence): 0
- Plant response rating, Nutsedge ([9]; Rate 250 g/ha, Preemergence): 0
- Plant response rating, Morningglory ([10]; Rate 62 g/ha, Postemergence): 3
- Morningglory plant response rating ([10]; Rate 62 g/ha, Preemergence): 0
- Plant response rating, Morningglory ([10]; Rate 125 g/ha, Postemergence): 4
- Morningglory plant response rating ([10]; Rate 125 g/ha, Preemergence): 0
- Plant response rating, Morningglory ([10]; Rate 250 g/ha, Postemergence): 4
- Plant response rating, Morningglory ([10]; Rate 250 g/ha, Preemergence): 0
- Plant response rating, Rape (rape (Brassica napus); Rate 62 g/ha, Postemergence): 3
- Rape plant response rating (rape (Brassica napus); Rate 62 g/ha, Preemergence): 0
- Plant response rating, Rape (rape (Brassica napus); Rate 125 g/ha, Postemergence): 4
- Rape plant response rating (rape (Brassica napus); Rate 125 g/ha, Preemergence): 0
- Plant response rating, Rape (rape (Brassica napus); Rate 250 g/ha, Postemergence): 5
- Plant response rating, Rape (rape (Brassica napus); Rate 250 g/ha, Preemergence): 0
- Plant response rating, Wild oats (wild oat (Avena fatua); Rate 62 g/ha, Postemergence): 2
- Wild oats plant response rating (wild oat (Avena fatua); Rate 62 g/ha, Preemergence): 1
- Plant response rating, Wild oats (wild oat (Avena fatua); Rate 125 g/ha, Postemergence): 3
- Wild oats plant response rating (wild oat (Avena fatua); Rate 125 g/ha, Preemergence): 2
- Plant response rating, Wild oats (wild oat (Avena fatua); Rate 250 g/ha, Postemergence): 3
- Plant response rating, Wild oats (wild oat (Avena fatua); Rate 250 g/ha, Preemergence): 3
- Plant response rating, Crabgrass ([11]; Rate 62 g/ha, Postemergence): 2
- Crabgrass plant response rating ([11]; Rate 62 g/ha, Preemergence): 0
- Plant response rating, Crabgrass ([11]; Rate 125 g/ha, Postemergence): 3
- Crabgrass plant response rating ([11]; Rate 125 g/ha, Preemergence): 1
- Plant response rating, Crabgrass ([11]; Rate 250 g/ha, Postemergence): 3
- Plant response rating, Crabgrass ([11]; Rate 250 g/ha, Preemergence): 2
- Plant response rating, Bedstraw ([12]; Rate 62 g/ha, Postemergence): 4
- Bedstraw plant response rating ([12]; Rate 62 g/ha, Preemergence): 0
- Plant response rating, Bedstraw ([12]; Rate 125 g/ha, Postemergence): 4
- Bedstraw plant response rating ([12]; Rate 125 g/ha, Preemergence): 0
- Plant response rating, Bedstraw ([12]; Rate 250 g/ha, Postemergence): 4
- Plant response rating, Bedstraw ([12]; Rate 250 g/ha, Preemergence): 1
- Plant response rating, Corn (corn (Zea mays); Rate 62 g/ha, Postemergence): 3
- Corn plant response rating (corn (Zea mays); Rate 62 g/ha, Preemergence): 0
- Plant response rating, Corn (corn (Zea mays); Rate 125 g/ha, Postemergence): 3
- Corn plant response rating (corn (Zea mays); Rate 125 g/ha, Preemergence): 0
- Plant response rating, Corn (corn (Zea mays); Rate 250 g/ha, Postemergence): 3
- Plant response rating, Corn (corn (Zea mays); Rate 250 g/ha, Preemergence): 0
- Plant response rating, Ducksalad [13, 16]: 0
- Plant response rating, Ducksalad [13, 17]: 0
- Plant response rating, Ducksalad [13, 18]: 0
- Plant response rating, Rice (rice (Oryza sativa); [16]): 0
- Plant response rating, Rice (rice (Oryza sativa); [17]): 0
- Plant response rating, Rice (rice (Oryza sativa); [18]): 0
- Plant response rating, Barnyardgrass [14, 16]: 0
- Plant response rating, Barnyardgrass [14, 17]: 0
- Plant response rating, Barnyardgrass [14, 18]: 0
- Plant response rating, S. Flatsedge [15, 16]: 0
- Plant response rating, S. Flatsedge [15, 17]: 0
- Plant response rating, S. Flatsedge [15, 18]: 0
